Reference: ChEMBL document CHEMBL1142246, “Azetidine-2,4-diones (4-oxo-beta-lactams) as scaffolds for designing elastase inhibitors” (J Med Chem, 2008)
Activity calls are given as the source filed them. The rule behind the calls is not given here.

Tests used:
[1] = (§1) Inhibition of pig pancreatic elastase; design: species or system Sus scrofa
Sus scrofa = organism: Sus scrofa; experiment: as §1

Row | SMILES | Ki [1] | Activity (Sus scrofa)
1 | CCOC(=O)CN1C(=O)C(CC)(CC)C1=O | – | inactive
2 | CCC1(CC)C(=O)N(Cc2ccccc2)C1=O | – | inactive
3 | CCC1(CC)C(=O)N(c2ccc(OC)cc2)C1=O | 9.81 µM | –
4 | CCC1(CC)C(=O)N(c2ccccc2)C1=O | 10.2 µM | –
5 | CCC1(CC)C(=O)N(c2ccc(C#N)cc2)C1=O | 6.02 µM | –
6 | CCC1(CC)C(=O)N(c2ccc(Cl)cc2)C1=O | 8.47 µM | –

Continued, values first:

Row | Ki [1] | Activity (Sus scrofa) | SMILES
7 | 10 µM | – | CC1(C)C(=O)N(c2ccc(Cl)cc2)C1=O
8 | 7.46 µM | – | CCC1(CC)C(=O)N(c2ccc(C)cc2)C1=O
9 | 184 µM | – | CC1(C)C(=O)N(Cc2ccccc2)C1=O
